According to patent US20250268889A1, “COMPOUNDS AND COMBINATIONS THEREOF FOR TREATING NEUROLOGICAL AND PSYCHIATRIC CONDITIONS” (priority 2022, published 2025):
Read-outs that look alike come from different tables or passages of the source.

Key:
[1] = Pharmacokinetics in moderate renal impairment vs matched controls
From the text: (§1) Data are GMRs and 90% CIs. References used are the matched healthy subjects for renal and hepatic impairment studies, and extensive or ultra-extensive CYP2D6 metabolizers respectively.

[2] = Pharmacokinetics in moderate hepatic impairment vs matched healthy subjects; conditions: patients having moderate hepatic impairment (Group 2)
From the text: as §1

[3] = Solubility of the powder in water
[4] = Pharmacokinetics of the subject combination (steady state); conditions: for changes in AUC and Cmax with dose (dose proportionality): steady state, co-administered with bupropion; for AUC0-12 relative to that of bupropion / Cmax relative to peak level of bupropion: metabolite; for apparent elimination half-life: metabolites of bupropion
[5] = Pharmacokinetics in CYP2D6 poor metabolizers vs extensive metabolizers
From the text: Approximately 7% to 10% of Caucasians and 3% to 8% of African Americans lack the capacity to metabolize CYP2D6 substrates and are classified as poor metabolizers.
as §1

[6] = Effect of food on pharmacokinetics of the subject combination; conditions: subject combination administered with food
[7] = Effect of concomitant 20 mg paroxetine on dextromethorphan exposure (Example 6); conditions: tablet of Example 4 twice daily, vs without paroxetine
[8] = Co-administration of paroxetine and the subject combination in healthy volunteers (Example 3); conditions: 29 healthy volunteers; paroxetine co-administered with the subject combination
[9] = test system: patients with treatment-resistant depression or MDD; conditions: cited from earlier work
[10] = human, in vivo
plasma protein = test: Plasma protein binding; conditions: metabolite
[11] = after administration of the subject combination
[12] = 7 subjects with moderate (GFR 30-60 mL/min) renal impairment vs 6 matched controls
[13] = patients having moderate renal impairment

SMILES: CC(NC(C)(C)C)C(=O)c1cccc(Cl)c1.Cl (racemic) [bupropion, (±)-1-(3-chlorophenyl)-2-[(1,1-dimethylethyl)amino]-1-propanone hydrochloride]
- increase in AUC0-12 ([1]; human, in vivo): 1.80 fold
- increase in Cmax ([1]; human, in vivo): 1.87 fold
- increase of exposure ([1]; human, in vivo): approximately 2 fold
- reduction of clearance ([1]; human, in vivo): 50%
- AUC0-12 and Cmax compared with healthy patients [2]: not significantly different
- solubility in water [3]: highly soluble
- median Tmax [4, 11]: about 2 hours

SMILES: Br.COc1ccc2c(c1)[C@]13CCCC[C@@H]1[C@H](C2)N(C)CC3 [dextromethorphan, morphinan, 3-methoxy-17-methyl-, (9α, 13α, 14α), hydrobromide monohydrate]
- increase of exposure [1, 12]: approximately 2 fold
- reduction of clearance [1, 12]: 50%
- increase in AUC0-12 [1, 13]: 2.21 fold
- increase in Cmax [1, 13]: 2.10 fold
- AUC0-12 and Cmax compared with healthy patients [2]: not significantly different
- increase in AUC0-12 compared to extensive metabolizers ([5]; 3 poor metabolizers): ~3.4 fold
- increase in Cmax compared to extensive metabolizers ([5]; 3 poor metabolizers): ~3 fold
- steady state plasma concentrations compared to non-poor metabolizers ([5]; 12 poor metabolizers treated in efficacy trials): generally higher
- solubility in water [3]: sparingly soluble
- increase of mean elimination half-life compared to dextromethorphan given without bupropion ([4]; following 8 days of administration of the subject combination in extensive metabolizers): approximately 3 fold
- changes in AUC and Cmax with dose (dose proportionality) ([4]; varying doses of bupropion (75 to 150 mg)): less than dose-proportional
- changes in AUC and Cmax with dose (dose proportionality) ([4]; varying doses of dextromethorphan (30 to 60 mg)): greater than dose-proportional
- accumulation ratio at steady state based on AUC0-12 ([4]; subject combination): about 32
- accumulation ratio at steady state based on Cmax ([4]; subject combination): about 20
- change of Cmax with food [6]: unchanged
- decrease of AUC0-12 with food [6]: 14%
- increase of AUC0-12 with concomitant paroxetine [7]: 2.69 fold
- increase of Cmax with concomitant paroxetine [7]: 2.38 fold
- increase of overall exposure by paroxetine [8]: 2.5 fold

SMILES: CC(NC(C)(C)C)C(O)c1cccc(Cl)c1 (centres unmarked) [erythrohydroxybupropion]
- AUC0-12 relative to that of bupropion [4, 11]: about 1.2 times
- Cmax relative to peak level of bupropion [4, 11]: approximately equal to
- apparent elimination half-life [4]: ~44 h

SMILES: CN[C@]1(c2ccccc2Cl)CCCCC1=O [esketamine, Esketamine]
- Incidence of Sedation (MOAA/S score <5) ([9]; 56 mg + oral AD, patients <65 years with TRD, fixed-dose study): 50%
- Incidence of Sedation (MOAA/S score <5) ([9]; 84 mg + oral AD, patients <65 years with TRD, fixed-dose study): 61%
- Incidence of Sedation (MOAA/S score <5) ([9]; 28 to 84 mg + oral AD, patients ≥65 years with TRD, flexible-dose study): 49%
- incidence of sedation (MOAA/S score <5) compared to placebo plus oral antidepressant ([9]; adults with MDD with acute suicidal ideation or behavior): higher incidence of sedation

SMILES: C[C@H]1NC(C)(C)CO[C@]1(O)c1cccc(Cl)c1 [hydroxybupropion]
- AUC0-12 relative to that of bupropion [4, 11]: about 19 times
- Cmax relative to peak level of bupropion [4, 11]: approximately 14 times
- apparent elimination half-life [4]: approximately 35 hours

SMILES: Fc1ccc([C@@H]2CCNC[C@H]2COc2ccc3c(c2)OCO3)cc1 [paroxetine]
- increase of overall exposure when co-administered with the subject combination [10]: 1.2 fold

SMILES: C[C@H](NC(C)(C)C)[C@@H](O)c1cccc(Cl)c1 [threohydroxybupropion]
- extent of protein binding compared with bupropion (plasma protein): about half that seen with bupropion
- AUC0-12 relative to that of bupropion [4, 11]: about 7 times
- Cmax relative to peak level of bupropion [4, 11]: about 5 times
- apparent elimination half-life [4]: ~33 h
